The source of these data is patent US12616713B2, “Methods for enhancing vascular density” (priority 2016, dated 2026).

Data set [1] is described as follows: Food and water intake, body weight and composition, motor and cardiac function of treated old mice. In kind it is in vivo, mouse. As to conditions: 18-month old mice, NMN 400 mg/kg/day in drinking water, two months. The source says:
SIRT1-iKO, SIRT1-Tg and SIRT1^STOP mice were described previously (Firestein et al., 2008, PLoS One 3, e2020; Price et al., 2012, Cell Metab 15, 675-690). Tie2Cre and Sirt1^flox/flox mice were purchased from Jackson Laboratory (Bar Harbor, ME). MCK-PGC-1α and MyogCre mice were gifts from Dr. Bruce Spiegelman (Dana Farber Cancer Center, MA) and Dr. Eric N. Olson (UT Southwestern, Dallas, TX), respectively. mT-STOP^flox/flox, Gfp mouse was generated in house by E.O.W., which consists of an allele driven by ubiquitous actin B promoter, which has loxP sites flanking membrane-targeted tandem dimer Tomato (mT) and transcriptional STOP cassette, followed by a GFP coding sequence. […] Mice were fasted for 6 h and blood glucose levels were measured by tail bleed (Accu Check Performa, Roche). Blood lactate was measured before and immediately after treadmill exercise training for 20 minutes at 15 meters/minute by tail bleed (Accutrend Plus, Roche). […] Urine was collected after a 2 h fast and analyzed for creatinine levels using a colorimetric assay kit (Cayman chemical, US) as per manufacturer's protocol. Motor coordination was assessed using the rotarod test as previously described ([…] et al., 2011, Plos One 6, e20336). […] On the 4th day, the animals were subjected to three trials on the accelerating roller (4-40 rpm in 4 min) and the time that the mice remained was recorded. […]

The test system of a further data set is C57BL/6J mice. The data set is described as follows: Skeletal muscle capillaries by CD31/laminin immunofluorescence in old mice. In kind it is in vivo, mouse. As to conditions: NMN 400 mg/kg/day, two months. The text has this:
SIRT1-iKO, SIRT1-Tg and SIRT1^STOP mice were described previously (Firestein et al., 2008, PLoS One 3, e2020; Price et al., 2012, Cell Metab 15, 675-690). Tie2Cre and Sirt1^flox/flox mice were purchased from Jackson Laboratory (Bar Harbor, ME). MCK-PGC-1α and MyogCre mice were gifts from Dr. Bruce Spiegelman (Dana Farber Cancer Center, MA) and Dr. Eric N. Olson (UT Southwestern, Dallas, TX), respectively. mT-STOP^flox/flox, Gfp mouse was generated in house by E.O.W., which consists of an allele driven by ubiquitous actin B promoter, which has loxP sites flanking membrane-targeted tandem dimer Tomato (mT) and transcriptional STOP cassette, followed by a GFP coding sequence. […] SIRT1-iKO mice were fed tamoxifen (360 mg/kg) diet for five weeks to elicit whole-body SIRT1 exon 4 excision as described previously (Price et al., 2012). […] NMN stock was changed twice per week and […]4137 was supplemented daily. Axitinib (30 mg/kg/day) was given via food and changed daily. Freshly isolated whole quadriceps and gastrocnemius muscle samples were mounted in OCT compound (Tissue-Tek), placed in an isopentane bath and slowly cooled in liquid nitrogen. Transverse sections at 20 μm-thickness were sectioned on a cryostat (Leica). The sections were fixed in pre-cooled acetone (-20° C.) for 10 min and washed with PBS. […] Slides were washed with PBST and then incubated with anti-rat Alexa Fluor 488-conjugated (Life Technologies) and anti-rabbit Alexa Fluor 594-conjugated (Life Technologies) antibodies diluted to 1:500 in blocking buffer for 2 h at room temperature. Slides were washed again with PBST and mounted with Fluoroshield with DAPI mounting medium (Sigma). Images were acquired using a confocal fluorescence microscope (Nikon A1). Quantification of capillaries and capillary density were performed using ImageJ software. TUNEL staining was performed in muscle sections using in situ BrdU-Red DNA fragmentation (TUNEL) assay kit (Abcam) as per manufacturer's protocol.

A further data set has as its system HUVECs. The experiment in a line: Wound scratch assay, HUVECs. In kind it is cell-based, human. The following applies: Scr or SIRT1 siRNA HUVECs, H2O2 150 μM 1 h, NaHS 100 μM and/or NMN 500 μM, 6 h. As for the experimental part:
ECs were cultured until forming a confluent monolayer and a scratch was made using a 200 μL pipette tip. Then the cells were allowed to migrate+/−NaHS (0.1 mM) and +/−NMN (0.5 mM) in EGM-2 medium for 6 hrs. Images were taken at the same location using a brightfield inverted microscope (Olympus 2467) every 2 h. The area of gap closure was calculated using ImageJ software. In some experiments, HUVECs were transduced with Scr or SIRT1 siRNA and cultured until forming a confluent monolayer. The cells were exposed to H2O2 (150 μM) for 1 h and a scratch was made using a 200 μL pipette tip. Then the cells were allowed to migrate with PBS (vehicle), NaHS (100 μM) and/or NMN (500 μM) in EGM-2 medium for 6 h. Images were taken at the same location using a brightfield inverted microscope (Olympus 2467) every 2 h. The area of gap closure was calculated using ImageJ software.

Data set [2] concerns MLECs isolated from WT and ESKO mice. The data set is described as follows: Transwell migration assay, MLECs. The following applies: WT versus ESKO MLECs, C2C12 CM, NMN 0.5 mM. Type of data set: cell-based, mouse.

“Also recorded” adds a separate entry of the source.

Take `NC(=O)c1ccc[n+]([C@@H]2O[C@H](COP(=O)([O-])O)[C@@H](O)[C@H]2O)c1` [NMN, nicotinamide mononucleotide]: the “food intake, water consumption, body weights, body composition, motor learning skills and cardiac function” value in data set [1] is on record as “had no effect”. The gastrocnemius capillarity entry with C57BL/6J mice (20-month old WT mice) is given as “increased capillaries; also recorded: increased gastrocnemius capillarity”; in the data set on C57BL/6J mice (20-month old tamoxifen-treated SIRT1-iKO mice), “not in SIRT1-iKO mice; also recorded: no change”. Further, the “number of capillaries and capillary density (quadriceps, gastrocnemius)” value in the data set with C57BL/6J mice (old mice) was “restored”. For the same compound, in the data set with HUVECs, the “cell migration (percentage of closed gaps)” value is listed as “had no effect”. The “ability of NMN to stimulate cell migration, dependence on SIRT1” value in data set [2] is given as “SIRT1-dependent”.
